The results in this text go back to patent EP0152574A1, “6-Ethoxy-4-methyl-benzothiazol-2(3H)-one, processes for its preparation and medicaments containing this compound” (priority 1983, dated 1985).

Structures are written as SMILES.

One data set concerns Hefefieber der Ratte. In words: Antipyretic action against yeast-induced fever. It counts as in vivo. Further details: unit not given here. Particulars: rat, oral, 2 h after dosing; dose lowering yeast fever by 1°C; limits in brackets. As to the method:
2. Die Prüfung der antipyretischen Wirkung erfolgte gegen das durch subcutane Gabe von 100 mg Hefe/100 g Tier ausgelöste Fieber an 120-150 g schweren männlichen Ratten. Die Prüfsubstanzen wurden 4 Stunden nach Hefegabe als Verreibung in l%iger Methylzellulose (1,0 ml/100 g) per Schlundsonde verabfolgt. Aus der 2 Stunden danach gefundenen Veränderung der Rektaltemperatur gegenüber der der Kontrolltiere wurde nach linearer Regressionsanalyse eine ED-1,0°C als jene Dosis berechnet, die das Hefefieber um 1°C senkte.

The next data set is described as follows: in vivo. The settings on record: rat, oral, 14 days observation, limits in brackets. As to the method:
3.) Die Bestimmung der akuten Toxizität erfolgte an Ratten beider Geschlechter mit einem Gewicht zwischen 120 und 150 g. Die Prüfsubstanzen wurden als Verreibung in l%iger Methylzellulose (2,0 ml/100 g Tier) per Schlundsonde appliziert. Die Berechnung der LD50 erfolgte nach […] u.

In data set [1] the test system is Entzündungsschmerz der Ratte. The data set is described as follows: Inflammatory pain test according to RANDALL and SELITTO (yeast-inflamed paw, pain threshold). It is filed as in vivo. Particulars: 1.5 h; rat, oral, 90 min after dosing; dose raising pain threshold by 50 %; confidence limits in brackets. As to the method: l.) Die Prüfung der Wirkung gegen den Entzündungsschmerz der Ratte erfolgte mit der Methode nach RANDALL u. SELITTO (Arch. int. Pharmacodyn. 111, 409 (1957)). Die Prüfsubstanzen wurden männlichen Ratten mit einem Gewicht zwischen 100 und 130 g als Verreibung in 1%iger Methylzellulose (1,0 ml/100 g Tier) 90 Minuten nach der subplantaren Hefegabe per Schlundsonde verabfolgt. Aus der 90 Minuten nach Gabe der verschiedenen Dosen der Prüfsubstanz gemessenen Schmerzschwelle wurde nach linearer Regressionsanalyse eine ED50 als jene Dosis ermittelt, die eine Anhebung der Schmerzschwelle um 50 % bewirkt.

Data set [2] concerns Glutathiongehalt der Mäuseleber. The data set is described as follows: Effect on liver glutathione content (ELLMAN method). It counts as in vivo, Maus. How it is done: 4.) Der Einfluß auf den Glutathion-Gehalt der Leber wurde an männlichen Mäusen mit einem Gewicht zwischen 25 und 30 g untersucht. 2 Stunden nach oraler Gabe der Prüfsubstanz (als Verreibung in l%iger Methylzellulose, 0,2 ml/10 g Tier) wurde die Leber entnommen.
Für die prognostische Beurteilung einer Hepatotoxizität ist die Erschöpfung der Glutathionvorräte in der Leber ein geeigneter Indikator.
Background: Ellman's reagent forms a yellow product with free thiols.

As to `CCOc1cc(C)c2[nH]c(=O)sc2c1` [Substanz A, 6-Ethoxy-4-methyl-benzothiazol-2(3H)-on], the “ED-1,0 °C” value in the data set with Hefefieber der Ratte is 31,2 (25,1-36,5). Further, the LD50 at 336 h in the data set “in vivo” is above 4000 mg/kg. In data set [1], this compound had an ED50 of 24.1 mg/kg. Besides, in data set [2] (in vivo, po, 1000 mg/kg), the “Verminderung des Leberzellglutathion” value is recorded as “deutlich schwächer und unterhalb des kritischen Bereiches”, the “red. GSH x̄” value is reported as 5,02 and the “Δ gegen Kontrollen” value is on record as “- 36,0%”.

`COc1cc(C)c2[nH]c(=O)sc2c1` [Substanz B, 6-Methoxy-4-methyl-benzothiazol-2(3H)-on]: the “ED-1,0 °C” value in the data set on Hefefieber der Ratte was 29,6 (25,0-34,0). The LD50 at 336 h in “in vivo” was 7580 mg/kg. In data set [1], it took a dose of 23 mg/kg to reach the 50% effect level (ED50). Moreover, in data set [2] (in vivo, po, 1000 mg/kg), the “Verminderung des Leberzellglutathion” value is given as above 50%, the “red. GSH x̄” value was 3,42 and the “Δ gegen Kontrollen” value is recorded as “- 56,4%”.

As to `Cc1cc(C)c2[nH]c(=O)sc2c1` [Substanz C, 4,6-Dimethyl-benzothiazol-2(3H)-on], the “ED-1,0 °C” value in the data set on Hefefieber der Ratte is listed as 18,1 (11,3-23,7). This compound registered an ED50 in data set [1] of 49.7 mg/kg. Moreover, the “red. GSH x̄” value in data set [2] (mouse liver, 2 h after oral 1000 mg/kg) is 2,90 mMol/g. Also, the “Verminderung des Leberzellglutathion” value in data set [2] (single oral dose 1000 mg/kg, mouse, critical range = depletion by more than 50 %) is above 50%.

`CC(=O)Nc1ccc(O)cc1` [Substanz D, p-Hydroxy-acetanilid]: the “ED-1,0 °C” value in the data set with Hefefieber der Ratte was 123 (84,0-155). Besides, the LD50 at 336 h in “in vivo” stood at 3960 mg/kg. In data set [1], this compound had an ED50 of 215 mg/kg. Moreover, the “Δ gegen Kontrollen” value in data set [2] (in vivo, po, 160 mg/kg) is “- 32,7%”; in data set [2] (in vivo, po, 200 mg/kg), “- 51,3%”; in data set [2] (in vivo, po, 250 mg/kg), “- 65,7%”; in data set [2] (in vivo, po, 315 mg/kg) it was “- 82,4%”.

Broadly, the LD50 is the dose at which mortality reaches 50%. The term ED50 denotes the dose at which the effect has come halfway, by size or by number of responders.
